# From patent US20250346592A1 (Celgene Corporation, priority 2022, published 2025)
# Target: hPAD4 enzyme (Homo sapiens (Human), UniProt Q9UM07)
# Experiment: RFMS2 assay (RapidFire mass spectrometry, TSTGGRQGSHH peptide substrate)
# Format: biochemical
# Conditions: 35 nM recombinant human PAD4, 500 μM TSTGGRQGSHH peptide, 30 minutes at room temperature; read-out: RFMS 2 IC50
# How it was run: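 Recombinant human PAD4 (35 nM) with 500 μM TSTGGRQGSHH peptide in HEPES pH 7.4, 200 mM NaCl, 2 mM CaCl2, 5 mM DTT, 1.2% DMSO, 30 min at room temperature; 3-fold compound series, top 20 μM. Quenched with formic acid; substrate and citrullinated product quantified by RapidFire MRM mass spectrometry for IC50.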
# Sequence of hPAD4 enzyme (Q9UM07 whole entry): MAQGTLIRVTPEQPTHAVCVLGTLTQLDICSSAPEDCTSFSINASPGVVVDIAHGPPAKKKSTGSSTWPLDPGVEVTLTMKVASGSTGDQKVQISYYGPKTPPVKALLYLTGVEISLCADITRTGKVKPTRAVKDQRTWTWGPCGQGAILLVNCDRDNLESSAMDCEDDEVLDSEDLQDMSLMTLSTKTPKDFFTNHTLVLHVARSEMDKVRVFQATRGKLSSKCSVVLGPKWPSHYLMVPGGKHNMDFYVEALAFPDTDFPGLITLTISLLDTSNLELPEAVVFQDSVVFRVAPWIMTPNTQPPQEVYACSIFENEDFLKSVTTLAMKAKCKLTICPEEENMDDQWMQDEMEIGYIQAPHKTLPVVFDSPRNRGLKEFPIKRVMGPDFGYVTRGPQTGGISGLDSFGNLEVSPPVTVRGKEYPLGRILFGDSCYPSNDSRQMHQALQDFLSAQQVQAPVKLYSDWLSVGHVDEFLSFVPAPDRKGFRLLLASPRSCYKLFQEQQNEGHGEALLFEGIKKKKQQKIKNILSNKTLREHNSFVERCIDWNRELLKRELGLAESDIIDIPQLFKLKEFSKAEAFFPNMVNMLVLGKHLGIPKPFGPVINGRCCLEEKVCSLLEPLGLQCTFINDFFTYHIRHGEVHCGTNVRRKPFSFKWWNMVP
row,Structure (SMILES),IC50 [nM]
1,"Cc1cccc2cc(-c3nc4cc5c(cc4n3C)CCN(C[C@@H](C)N)C5=O)n(CC3CC3)c12 [Example 17, (R)-6-(2-aminopropyl)-2-(1-(cyclopropylmethyl)-7-methyl-1H-indol-2-yl)-1-methyl-1,6,7,8-tetrahydro-5H-imidazo[4,5-g]isoquinolin-5-one]",101 to 500
2,"Cn1c(-c2cc3cccc(OCCn4cnc(C#N)n4)c3n2CC2CC2)nc2cc3c(cc21)CCN(C[C@H](N)CF)C3=O [Example 224, (S)-1-(2-((2-(6-(2-amino-3-fluoropropyl)-1-methyl-5-oxo-5,6,7,8-tetrahydro-1H-imidazo[4,5-g]isoquinolin-2-yl)-1-(cyclopropylmethyl)-1H-indol-7-yl)oxy)ethyl)-1H-1,2,4-triazole-3-carbonitrile]",101 to 500
3,"COc1cccc2cc(-c3nc4cc5c(cc4n3C)CCN(C[C@H](N)CF)C5=O)n(C[C@@H]3CCCO3)c12 [Example 133, 6-((S)-2-amino-3-fluoropropyl)-2-(7-methoxy-1-(((S)-tetrahydrofuran-2-yl)methyl)-1H-indol-2-yl)-1-methyl-1,6,7,8-tetrahydro-5H-imidazo[4,5-g]isoquinolin-5-one]",101 to 500
4,"C[C@@H](N)CN1CCc2cc3c(cc2C1=O)nc(-c1cc2ccccc2n1CC1CCCC1)n3C [Example 72, (R)-6-(2-aminopropyl)-2-(1-(cyclopentylmethyl)-1H-indol-2-yl)-1-methyl-1,6,7,8-tetrahydro-5H-imidazo[4,5-g]isoquinolin-5-one]",101 to 500
5,"CN(C)C(=O)c1ccc2cc(-c3nc4cc5c(cc4n3C)CCN(C[C@H](N)CF)C5=O)n(CC3CC3)c2n1 [Example 64, (S)-2-(6-(2-amino-3-fluoropropyl)-1-methyl-5-oxo-5,6,7,8-tetrahydro-1H-imidazo[4,5-g]isoquinolin-2-yl)-1-(cyclopropylmethyl)-N,N-dimethyl-1H-pyrrolo[2,3-b]pyridine-6-carboxamide]",501 to 1000
6,"COCC(C)c1ccc2cc(-c3nc4cc5c(cc4n3C)CCN(C[C@@H](C)N)C5=O)n(CC3CC3)c2c1 (single isomer, unassigned) [Example 40]",> 1000
7,"CNC(=O)OCCOc1cccc2cc(-c3nc4cc5c(cc4n3C)CCN(C[C@H](N)CF)C5=O)n(CC3CC3)c12 [Example 211, (S)-2-((2-(6-(2-amino-3-fluoropropyl)-1-methyl-5-oxo-5,6,7,8-tetrahydro-1H-imidazo[4,5-g]isoquinolin-2-yl)-1-(cyclopropylmethyl)-1H-indol-7-yl)oxy)ethyl methylcarbamate]",101 to 500

# Further lines, results first:
row,IC50 [nM],Structure (SMILES)
1,101 to 500,"Cn1c(-c2cc3cccc(OCc4ccnnc4)c3n2CC2CC2)nc2cc3c(cc21)CCN(C[C@H](N)CF)C3=O [Example 171, (S)-6-(2-amino-3-fluoropropyl)-2-(1-(cyclopropylmethyl)-7-(pyridazin-4-ylmethoxy)-1H-indol-2-yl)-1-methyl-1,6,7,8-tetrahydro-5H-imidazo [4,5-g]isoquinolin-5-one]"
2,101 to 500,"C[C@@H](N)CN1CCc2cc3c(cc2C1=O)nc(-c1cc2ccc(F)nc2n1CC1CC1)n3C [Example 21, (R)-6-(2-aminopropyl)-2-(1-(cyclopropylmethyl)-6-fluoro-1H-pyrrolo[2,3-b]pyridin-2-yl)-1-methyl-1,6,7,8-tetrahydro-5H-imidazo[4,5-g]soquinolin-5-one]"
3,101 to 500,"Cn1c(-c2cc3cccc(OC[C@@H]4CCC(=O)N4)c3n2CC2CC2)nc2cc3c(cc21)CCN(C[C@H](N)CF)C3=O [Example 156, 6-((S)-2-amino-3-fluoropropyl)-2-(1-(cyclopropyl-methyl)-7-(((S)-5-oxopyrrolidin-2-yl)methoxy)-1H-indol-2-yl)-1-methyl-1,6,7,8-tetrahydro-5H-imidazo [4,5-g]isoquinolin-5-one]"
4,11 to 100,"Cn1c(-c2cc3cccc(OCCc4cc[nH]n4)c3n2CC2CC2)nc2cc3c(cc21)CCN(C[C@H](N)CF)C3=O [Example 173, (S)-2-(7-(2-(1H-pyrazol-3-yl)ethoxy)-1-(cyclopropylmethyl)-1H-indol-2-yl)-6-(2-amino-3-fluoropropyl)-1-methyl-1,6,7,8-tetrahydro-5H-imidazo [4,5-g]isoquinolin-5-one]"
